This passage reports IC50 results from article PMC6245447, “Effect of Dehydroaltenusin-C12 Derivative, a Selective DNA Polymerase α Inhibitor, on DNA Replication in Cultured Cells” (Molecules, 2008).

In this assay the target is T1, DNA polymerase α (calf thymus pol α) (Bos taurus, UniProt A0AAA9TD94).
T1 construct: gene POLA1; pol α purified from calf thymus
T1 sequence (A0AAA9TD94 1-1441): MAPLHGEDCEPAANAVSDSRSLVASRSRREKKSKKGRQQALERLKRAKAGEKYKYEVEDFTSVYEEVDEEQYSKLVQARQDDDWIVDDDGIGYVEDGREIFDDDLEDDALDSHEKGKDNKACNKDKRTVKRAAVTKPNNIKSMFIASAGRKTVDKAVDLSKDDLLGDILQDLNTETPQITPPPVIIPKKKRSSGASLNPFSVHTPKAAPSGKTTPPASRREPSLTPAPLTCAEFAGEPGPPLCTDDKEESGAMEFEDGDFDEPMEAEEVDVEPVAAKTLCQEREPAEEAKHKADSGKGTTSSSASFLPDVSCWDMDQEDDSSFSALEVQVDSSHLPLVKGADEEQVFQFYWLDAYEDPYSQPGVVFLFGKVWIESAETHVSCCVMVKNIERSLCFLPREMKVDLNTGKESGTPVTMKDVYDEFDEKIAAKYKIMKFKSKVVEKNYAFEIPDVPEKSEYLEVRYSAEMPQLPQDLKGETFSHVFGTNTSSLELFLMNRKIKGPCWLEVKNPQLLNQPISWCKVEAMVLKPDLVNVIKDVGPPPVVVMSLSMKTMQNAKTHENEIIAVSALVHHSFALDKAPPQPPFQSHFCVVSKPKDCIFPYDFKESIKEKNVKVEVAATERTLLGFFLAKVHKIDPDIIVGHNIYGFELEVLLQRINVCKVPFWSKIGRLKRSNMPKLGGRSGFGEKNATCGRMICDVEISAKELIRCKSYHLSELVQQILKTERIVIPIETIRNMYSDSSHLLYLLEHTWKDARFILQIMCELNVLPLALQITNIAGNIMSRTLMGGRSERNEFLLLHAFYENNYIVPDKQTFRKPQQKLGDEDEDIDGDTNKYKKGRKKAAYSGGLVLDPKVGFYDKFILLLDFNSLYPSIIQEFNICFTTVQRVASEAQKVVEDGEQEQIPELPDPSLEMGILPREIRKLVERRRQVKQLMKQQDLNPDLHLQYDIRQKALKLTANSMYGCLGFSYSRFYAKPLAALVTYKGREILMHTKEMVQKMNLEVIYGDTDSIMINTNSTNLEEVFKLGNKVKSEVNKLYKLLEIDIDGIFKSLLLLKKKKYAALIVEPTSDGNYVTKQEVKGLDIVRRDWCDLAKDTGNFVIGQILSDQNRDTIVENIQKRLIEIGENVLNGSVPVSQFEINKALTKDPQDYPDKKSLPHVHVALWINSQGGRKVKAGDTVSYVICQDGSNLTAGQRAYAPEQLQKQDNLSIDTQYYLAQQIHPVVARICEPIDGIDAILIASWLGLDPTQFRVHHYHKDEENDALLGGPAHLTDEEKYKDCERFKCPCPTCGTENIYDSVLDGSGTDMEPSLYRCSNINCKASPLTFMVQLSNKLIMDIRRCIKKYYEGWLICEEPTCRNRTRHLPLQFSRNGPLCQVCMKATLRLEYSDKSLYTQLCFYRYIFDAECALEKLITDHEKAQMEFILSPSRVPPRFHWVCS
The experiment in a line: [3H]-dTTP incorporation polymerase assay on poly(dA)/oligo(dT)[…]-18 with purified pol α. It counts as biochemical.

The structures appear in SMILES notation. pIC50: −log10 of the molar value. Where two headings read alike, the source gives them in different places.

A word on the pIC50: it is the negative decadic logarithm of the IC50, by convention in mol/L.

`C[C@@]1(CO)[C@H](O)CC[C@@]2(C)[C@H]1CC[C@H]1C[C@@H]3C[C@@]12CC[C@]3(O)CO` [compound 3, aphidicolin] showed a pIC50 of 4.84.

`CCCCCCCCCCCCOc1cc(O)c2c(c1)C1=CC(=O)C(O)=CC1(C)OC2=O` (stereo not drawn) [compound 2, C12]: under “read-out: IC50”, the pIC50 was 5.85.

As to `COc1cc(O)c2c(c1)C1=CC(=O)C(O)=CC1(C)OC2=O` (stereo not drawn) [compound 1, Dehydroaltenusin], under “read-out: IC50”, the pIC50 is 5.00.
